The values below come from patent publication US20070021450A1, “Indanylamino uracils and their use as antioxidants and neuroprotectants” (priority 2004, published 2007).

Data set [1] in a line: Chemical chemiluminescence (without cells): Luminol+SIN-1+selenite+BSA. The arrangement: concentration or dose not given beside the values. As to conditions: compared to ascorbic acid. The source says: Luminescence was generated in vials containing the following compounds: Luminol+SIN-1(generator of NO radicals)+selenite+BSA. This reaction is inhibited by scavengers of peroxynitrites, as well as scavengers of NO and O2 free radicals.

The next data set has as its system neutrophils. The experiment in a line: PMA-induced oxidative burst in neutrophils (DCFH, FACS). It is filed as cell-based. Particulars: PMA 10 ng/ml 30 min, compared to ascorbic acid. Here is the method:
PMA-induced oxidative burst in neutrophils: The cells were activated with PMA (10 ng/ml) for 30 min and incubated with 2,7-dichlorodihydrofluorescin diacetate (DCFH), which, in the presence of O2 radicals and peroxynitrites, is converted to a fluorescent compound. The fluorescent cells are detected in a cell sorter (FACS).

Another data set concerns human red blood cells. Nature of the data set: Hypochlorite (HOCl) hemolysis of human red blood cells. The data set is classed as cell-based. As to conditions: activity compared to ascorbic acid. Here is the method: Hypochlorite (HOCl) hemolysis of human red blood cells. The reaction is based on the ability of O2 radicals to lyse red blood cells. Antioxidant compounds such as ascorbic acid and 4-hydroxy-2,2,6,6-tetramethyl-piperidine-1-oxyl (TEMPOL) prevent membrane damage in a dose dependent manner. All compounds were dissolved at a concentration of 5 mg/ml and aliquots were tested for their ability to prevent lysis.

A further data set concerns EAE. Nature of the data set: Treatment of EAE with TEMPOL (FIG. 1). The data set is classed as in vivo, mice. As to conditions: Tempol 100 mg and 200 mg groups. The source says:
The dosage of TEMPOL used here was […] higher than the dosages of compounds 6 and 7 below. The experiments were terminated arbitrarily at day 18 post-immunization. The course of EAE in different groups of animals varies. Consequently, recovery time is variable, typically by two or three days.

Data set [2] has as its system EAE (PLP 139-151 challenge). The experiment in a line: PLP induced experimental allergic encephalomyelitis (EAE) in SJL mice. It is filed as in vivo. As to conditions: for effect on EAE, in words: 50 mg/kg/day po. The arrangement: key to Mean maximal score / Mean score (group mean score): clinical score 0 = no signs to 6 = death. Here is the method:
Female SJL mice (12 weeks) were inoculated with the encephalitogenic peptide of proteolipid protein (PLP 139-151) synthesized to a purity of 70% by Sigma (Israel). 150 μg of the peptide were emulsified in complete Freund's adjuvant (CFA) (Difco laboratories), supplemented with killed mycobacteria (5 mg/ml) and pertussis toxin (200 ng) (Sigma), given subcutaneously at day of inoculation only.
Mice were kept SPF conditions and given water and food ad libitum. Mice were daily observed for clinical signs from day 10 to day 18-21 post inoculation.
The clinical score used is as follows: 0—no clinical signs; 0.5—loss of right reflex; 1—distal limp tail; 2—complete limp tail; 3—ataxia; 4—early paralysis (one hind limb); 5—complete hind legs paralysis and moribund state; 6—death.
Compounds were dissolved in 2-hydroxypropyl beta cyclodextrin (40% water solution). Treatment started at day 1 post inoculation. The compounds (50 mg/kg) and vehicle were given orally by gavage every day until day 20 post inoculation.
Compounds 6 and 7 were given orally to mice challenged with PLP, at a dose of 50 mg/kg/day, p.o. The results are presented in Table 3a and in FIGS. 2 and 3. The effect of Compound 6 on all parameters of the disease was more pronounced as compared to the control group.

A short description of data set [3]: Reaction with 1,1-diphenyl-2-picrylhydrazyl (DPPNH), radical scavenging. It is filed as physicochemical. As to conditions: equimolar amounts; for DPPNH: radical scavenging, grades 0 to +++, key not given; for DPPNH consumed: reacted instantaneously. Here is the method: (§1) Reaction with 1,1-diphenyl-2-picrylhydrazyl (DPPNH) is indicative of radical scavenging ability. The compounds were mixed with DPPNH (in equimolar amounts) and the consumption rate of DPPNH was measured. Compounds 3 and 4 reacted instantaneously, consuming 70% and 20% of DPPNH respectively (Table 2). The oxidation potential of the compounds was measured by cyclic voltametry.

The nature of data set [4]: Oxidation potential by cyclic voltametry. It is filed as physicochemical. Particulars: for oxidation potential (cyclic voltametry), in words: pH 7.2. Here is the method:
as §1

Data set [5] has as its system EAE (PLP 139-151 challenge). Nature of the data set: PLP induced experimental allergic encephalomyelitis (EAE) in SJL mice. Particulars: single dose daily, po. It is filed as in vivo.
Data set [6] relates to EAE (MSCH emulsion induction). The experiment in a line: EAE in CSJL mice, acute model (MSCH/CFA induction). It is filed as in vivo. Particulars: for Mortality / Incidence: 30 days, CSJL mice; for Mean Duration: duration of disease; for % inhibition 3: inhibition of GMS vs control; for % inhibition 2: inhibition of MMS vs control; for % inhibition 1: inhibition of incidence vs control; for GMS value: mean group score; for MMS value: mean maximal score.

Where [7] appears, read: Table 3b: 50 mg/kg, single dose daily, po.
Where [8] appears, read: Table 3b: 50 mg/kg, single dose daily, po, only mice that develop disease.
[9] abbreviates: Table 3b: 12.5 mg/kg, single dose daily, po.
Setting [10] is: Table 3b: 100 mg/kg, single dose daily, po.
[11] abbreviates: Table 3a: 50 mg/kg/day po, single dose daily, PLP challenge.
Where [12] appears, read: 25.0 mg/kg × 2 per day (single dose on weekends), oral.
The mark [13] stands for this setting: Table 3a: 50 mg/kg/day po, PLP challenge, mean ± SEM.

As to `CC1(C)CC(O)CC(C)(C)N1[O]` [4-hydroxy-2,2,6,6-tetramethyl-piperidine-1-oxyl, reference compound], the “% Chemiluminescence inhibition” value in [1] is given as 78%. In the data set on neutrophils, the “PMA % of cells activated” value amounted to 80%. The HOCl % lysis with human red blood cells is listed as 50%. Besides, the “manifestation of clinical signs of EAE, in words” value in the data set on EAE is “has the ability to inhibit the manifestation of clinical signs of EAE”.

Turning to `O=C1O[C@H]([C@@H](O)CO)C(O)=C1O` [Ascorbic acid, reference compound], the “% Chemiluminescence inhibition” value in [1] stood at 100%. In the data set with neutrophils, the “PMA % of cells activated” value was 100%. Further, in the data set on human red blood cells, the HOCl % lysis was determined as 100%.

Take `Nc1cc(=O)[nH]c(=O)n1C1CCc2ccccc21` (centres unmarked) [Compound 1, 6-amino-1-indan-1-yl-1H-pyrimidine-2,4-dione]: in data set [2] (setting [7]), the Incidence is recorded as 6/8, the Mean disease duration is 5.57 ± 1.72, the Mean maximal score is recorded as 4.2 and the Mean score is given as 3.4 ± 0.2. Further, the “Mean day of onset” value in [2] (setting [8]) was found to be 12.5 ± 0.7. For the same compound, in data set [1], the “% Chemiluminescence inhibition” value is given as 0%. This compound gave a DPPNH in [3] of 0. For the same compound, the “PMA % of cells activated” value with neutrophils is 0%. The “oxidation potential (cyclic voltametry), in words” value (shortened to “oxidation potential”) in [4] was “reducing action, but to a lesser extent than compound 3”. The HOCl % lysis in the data set with human red blood cells was found to be 75%.

On to `Nc1c(N)n(C2CCc3ccccc32)c(=O)[nH]c1=O` (centres unmarked) [Compound 3, 5,6-diamino-1-indan-1-yl-1H-pyrimidine-2,4-dione], for which the melting point was 218 °C (dec.). Further, the “% Chemiluminescence inhibition” value in data set [1] is reported as 38%. The DPPNH consumed in [3] turned out to be 70%. Besides, the “PMA % of cells activated” value in the data set on neutrophils is listed as 30%. The “oxidation potential” value in [4] is given as “strong electron donor activity”. Also, the HOCl % lysis in the data set on human red blood cells is 72%.

The compound `Nc1c(NC2CCc3ccccc32)[nH]c(=O)[nH]c1=O` (centres unmarked) [Compound 4, 5-amino-6-(indan-1-ylamino)-1H-pyrimidine-2,4-dione] returned a melting point greater than 150 °C. The compound also registered a DPPNH consumed in [3] of 20%. In addition, the “Cyclic voltametry - AW” value in [4] (anodic wave, grades 0 to +++, key not given) is on record as 0.

In the case of `O=c1cc(NC2CCc3ccccc32)[nH]c(=O)[nH]1` (centres unmarked) [Compound 5, 6-(indan-1-ylamino)-1H-pyrimidine-2,4-dione], the Incidence in data set [2] (setting [9]) is on record as 18/18; in data set [2] (setting [7]), 14/16; in [2] (setting [10]), 5/5. The values for the Mean maximal score in data set [2] (setting [9]), in data set [2] (setting [7]) and in data set [2] (setting [10]) were 4.5, 5 and 5, respectively. The Mean disease duration is given as 5.64 ± 1.55 in [2] (setting [7]), 6.06 ± 1.7 in data set [5] (Table 3b: 12.5 mg/kg) and 4.4 ± 1.7 in data set [5] (Table 3b: 100 mg/kg). In addition, the Mean score in [2] (setting [7]) stood at 3.48 ± 0.3; in data set [2] (setting [10]) it was 3.2 ± 0.25; in [5] (Table 3b: 12.5 mg/kg), 3.8 ± 0.35. Besides, the “Mean day of onset” value in data set [2] (setting [8]) was found to be 12.9 ± 1.35; in [2] (Table 3b:, single dose daily, po, only mice that develop disease) it was 11.8 ± 1.1; in data set [5] (Table 3b: 12.5 mg/kg, only mice that develop disease), 12 ± 0.68. The “% Chemiluminescence inhibition” value in data set [1] is given as 75%. The compound further came in with a DPPNH in data set [3] of 0. In the data set on neutrophils, the “PMA % of cells activated” value is listed as 80%. The “oxidation potential” value in [4] is “reducing action, but to a lesser extent than compound 3”. The HOCl % lysis in the data set on human red blood cells was 100%.

As for `CN(C)c1cccc2c1CCC2Nc1cc(=O)[nH]c(=O)[nH]1.Cl` (centres unmarked) [Compound 6, 6-(4-dimethylamino-indan-1-ylamino)-1H-pyrimidine-2,4-dione HCl], in data set [2] (PLP challenge), the “effect on EAE, in words” value is “significant beneficial effect on EAE”. Also, in [2] (setting [11]), the “(# dead)” value is given as “(4)” and the Incidence is given as 10/14. The “% Chemiluminescence inhibition” value in data set [1] is on record as 56%. In addition, in the data set with human red blood cells, the HOCl % lysis amounted to 44%. In [6] (setting [12]), the Mortality is 4/10. Also, the Incidence in data set [6] (25.0 mg/kg × 2 per day, oral) was 7/10. Further, in data set [6] (50.0 mg/kg once a day, oral), the Incidence is on record as 7/10, the Mortality is 5/10, the “Mean Duration” value came to 11.3 ± 8.5 days and the “% inhibition 3” value was found to be 31.3%. Moreover, in [6] (50.0 mg/kg once a day, oral), the “% inhibition 2” value was 26.8%, the “% inhibition 1” value is reported as 30.0%, the GMS value is 2.2 ± 1.8 and the MMS value was determined as 3.0 ± 2.3. For the same compound, in [6] (25.0 mg/kg × 2, oral), the “Mean Duration” value was determined as 11.1 ± 8.6 days, the “% inhibition 3” value is 40.6%, the “% inhibition 2” value is reported as 34.1% and the “% inhibition 1” value turned out to be 30.0%. In addition, in data set [6] (25.0 mg/kg × 2, oral), the GMS value amounted to 1.9 ± 1.9 and the MMS value is listed as 2.7 ± 2.2.

As to `CN(C)c1ccc2c(c1)C(Nc1cc(=O)[nH]c(=O)[nH]1)CC2.Cl` (centres unmarked) [Compound 7, 6-(6-dimethylamino-indan-1-ylamino)-1H-pyrimidine-2,4-dione HCl], the “effect on EAE, in words” value in [2] (PLP challenge) is “significant beneficial effect on EAE”. Also, in [2] (setting [13]), the “Mean day of onset” value worked out at 14.8 ± 0.94, the Mean disease duration was 4.1 ± 0.84, the Mean maximal score was 4.3 ± 0.9 and the “Mean score (group mean score)” value stood at 1.6 ± 0.27. In addition, in data set [2] (setting [11]), the “(# dead)” value was “(4)” and the Incidence is on record as 11/14. Further, the “% Chemiluminescence inhibition” value in [1] came to 62%. The HOCl % lysis in the data set with human red blood cells came to 55%. Moreover, the Mortality in data set [6] (setting [12]) is listed as 8/10. For the same compound, the Incidence in data set [6] (25.0 mg/kg × 2 per day, oral) is given as 8/10. Besides, in data set [6] (50.0 mg/kg once a day, oral), the Incidence is 7/10, the Mortality is recorded as 7/10, the “Mean Duration” value was 12.7 ± 8.8 days and the “% inhibition 3” value is 15.6%. In data set [6] (50.0 mg/kg once a day, oral), the “% inhibition 2” value is reported as 14.6%, the “% inhibition 1” value amounted to 30.0%, the GMS value amounted to 2.7 ± 1.9 and the MMS value is on record as 3.5 ± 2.4. In addition, in data set [6] (25.0 mg/kg × 2, oral), the “Mean Duration” value was 13.9 ± 7.5 days, the “% inhibition 3” value is on record as 9.4%, the “% inhibition 2” value came to 2.4% and the “% inhibition 1” value was determined as 20.0%. In data set [6] (25.0 mg/kg × 2, oral), the GMS value is given as 2.9 ± 1.6 and the MMS value turned out to be 4.0 ± 2.1.

For the compound `CC1(C)CC(O)CC(C)(C)N1O` [N-Hydroxy-tetramethyl-4-piperidinol, reference compound], in [1], the “% Chemiluminescence inhibition” value is 42%. The “PMA % of cells activated” value with neutrophils worked out at 60%. This compound had an HOCl % lysis in the data set on human red blood cells of 52%.

For `CC1(C)CC(O)CC(C)(C)N1` [Tetramethyl-4-piperidinol, reference compound], in data set [1], the “% Chemiluminescence inhibition” value was determined as 1.2%. Moreover, the “PMA % of cells activated” value with neutrophils was 30%. This compound came in with an HOCl % lysis in the data set on human red blood cells of 0%.
